Some results are limits rather than exact numbers.

Our source for the Emax and DC50 values is patent publication US20250320206A1, “STAT6 DEGRADERS” (Gilead Sciences, Inc., priority 2024, published 2025).

The target of one assay is T1, STAT6 (Homo sapiens, UniProt P42226).
T1 construct: These cells express endogenous STAT6; host or cells: HeLa LgBiT clone 4.14
T1 sequence (P42226 1-847): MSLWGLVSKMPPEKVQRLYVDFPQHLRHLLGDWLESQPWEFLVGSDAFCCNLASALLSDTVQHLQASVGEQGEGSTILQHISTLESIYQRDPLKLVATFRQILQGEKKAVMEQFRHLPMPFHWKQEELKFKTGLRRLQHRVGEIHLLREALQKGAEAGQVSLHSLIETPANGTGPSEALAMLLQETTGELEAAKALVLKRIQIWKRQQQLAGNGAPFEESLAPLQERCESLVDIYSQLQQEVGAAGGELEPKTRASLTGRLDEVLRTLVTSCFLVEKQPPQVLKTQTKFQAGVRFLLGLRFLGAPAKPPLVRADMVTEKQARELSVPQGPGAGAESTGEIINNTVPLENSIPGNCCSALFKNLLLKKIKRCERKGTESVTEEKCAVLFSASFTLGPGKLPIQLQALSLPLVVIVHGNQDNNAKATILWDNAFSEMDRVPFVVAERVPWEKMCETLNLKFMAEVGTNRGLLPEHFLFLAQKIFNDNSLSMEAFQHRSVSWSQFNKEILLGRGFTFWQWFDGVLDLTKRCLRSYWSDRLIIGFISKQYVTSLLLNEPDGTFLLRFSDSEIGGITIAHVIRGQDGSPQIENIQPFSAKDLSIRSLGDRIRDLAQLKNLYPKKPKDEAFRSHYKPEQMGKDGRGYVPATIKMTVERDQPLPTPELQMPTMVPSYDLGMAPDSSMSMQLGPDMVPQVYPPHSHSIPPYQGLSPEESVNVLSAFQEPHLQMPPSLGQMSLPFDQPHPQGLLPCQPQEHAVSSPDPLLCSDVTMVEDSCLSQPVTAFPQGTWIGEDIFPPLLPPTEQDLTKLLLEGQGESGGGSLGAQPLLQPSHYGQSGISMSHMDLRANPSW
In words: Stat6 Degrader Assay (HiBiT based, HeLa LgBiT clone 4.14). Format: cell-based. As to conditions: HeLa LgBiT clone 4.14 HiBiT-STAT6, 4-24 h incubation; read-out: STAT6 degradation Emax. The procedure, abridged: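 HeLa LgBiT clone 4.14 cells with CRISPR HiBiT-tagged endogenous STAT6, 5000 cells/well, compound dosed then incubated 4-24 h at 37° C, 5% CO2. Nano-Glo substrate added, 0.5 h, luminescence read as non-degraded STAT6. Terfenadine 50 μM (cell kill) defines 100% degradation.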
A general note: HiBiT is a short tag that completes a luciferase, so light tracks the accessible tagged protein.
In general, Emax refers to the size of the effect at its maximum, as opposed to the concentration needed. For `C[C@H](c1cc2c(-n3ccc4[nH]ncc4c3=O)ccnc2n1C)N1CCC(c2ccc(C(=O)N3CCC(CN4CCN(Cc5ccc6c(c5)oc(=O)n6C5CCC(=O)NC5=O)CC4)CC3)cc2)CC1` (stereo partly drawn) [Example 3u265, 3-(6-((4-((1-(4-(1-((R)-1-(1-methyl-4-(4-oxo-1,4-dihydro-5H-pyrazolo[4,3-c]pyridin-5-yl)-1H-pyrrolo[2,3-b]pyridin-2-yl)ethyl)piperidin-4-yl)benzoyl)piperidin-4-yl)methyl)piperazin-1-yl)methyl)-2-oxobenzo[d]oxazol-3 (2H)-yl)piperidine-2,6-dione], the Emax was less than 20%. On the same count and under the same terms, as for `CNc1cc(=O)n(-c2ccnc3c2cc(CN2CCC(c4c(F)cc(C(=O)N5CCC(OCC#Cc6ccc7c(c6)n(C)c(=O)n7C6CCC(=O)NC6=O)CC5)cc4F)CC2)n3C)cc1F` (stereo not shown) [Example 3u262, 3-(5-(3-((1-(3,5-difluoro-4-(1-((4-(5-fluoro-4-(methylamino)-2-oxopyridin-1 (2H)-yl)-1-methyl-1H-pyrrolo[2,3-b]pyridin-2-yl)methyl)piperidin-4-yl)benzoyl)piperidin-4-yl)oxy)prop-1-yn-1-yl)-3-methyl-2-oxo-2,3-dihydro-1H-benzo[d]imidazol-1-yl)piperidine-2,6-dione], the figure is 30 to 40%. Same read-out and setting: the value for `CNc1cc(=O)n(-c2ccnc3c2cc([C@H](C)N2CC=C(c4c(C)cc(C(=O)N5CCC(CN6CCN(Cc7ccc8c(c7)n(C7CC7)c(=O)n8C7CCC(=O)NC7=O)C[C@@H]6C)CC5)cc4F)CC2)n3C)cc1OC` (stereo partly drawn) [Example 3u134, 3-(3-cyclopropyl-5-(((S)-4-((1-(3-fluoro-4-(1-((S)-1-(4-(5-methoxy-4-(methylamino)-2-oxopyridin-1 (2H)-yl)-1-methyl-1H-pyrrolo[2,3-b]pyridin-2-yl)ethyl)-1,2,3,6-tetrahydropyridin-4-yl)-5-methylbenzoyl)piperidin-4-yl)methyl)-3-methylpiperazin-1-yl)methyl)-2-oxo-2,3-dihydro-1H-benzo[d]imidazol-1-yl)piperidine-2,6-dione] was 20 to 30%; that for `CNc1cc(=O)n(-c2ccnc3c2cc(CN2CCC(c4c(F)cc(C(=O)N5CCC(CCn6cc(-c7ccc8c(c7)n(C)c(=O)n8C7CCC(=O)NC7=O)nn6)CC5)cc4F)CC2)n3C)cc1F` (stereo not shown) [Example 3u263, 3-(5-(1-(2-(1-(3,5-difluoro-4-(1-((4-(5-fluoro-4-(methylamino)-2-oxopyridin-1 (2H)-yl)-1-methyl-1H-pyrrolo[2,3-b]pyridin-2-yl)methyl)piperidin-4-yl)benzoyl)piperidin-4-yl)ethyl)-1H-1,2,3-triazol-4-yl)-3-methyl-2-oxo-2,3-dihydro-1H-benzo[d]imidazol-1-yl)piperidine-2,6-dione] was 70 to 80%; that for `CNc1cc(=O)n(-c2ccnc3c2cc([C@H](C)N2CC=C(c4c(C)cc(C(=O)N5CCC(CN6CCN(c7ccc8c(c7)n(C7CCC(=O)NC7=O)c(=O)n8C)CC6)CC5)cc4F)CC2)n3C)cc1F` (stereo partly drawn) [Example 3u272, 3-(6-(4-((1-(3-fluoro-4-(1-((S)-1-(4-(5-fluoro-4-(methylamino)-2-oxopyridin-1 (2H)-yl)-1-methyl-1H-pyrrolo[2,3-b]pyridin-2-yl)ethyl)-1,2,3,6-tetrahydropyridin-4-yl)-5-methylbenzoyl)piperidin-4-yl)methyl)piperazin-1-yl)-3-methyl-2-oxo-2,3-dihydro-1H-benzo[d]imidazol-1-yl)piperidine-2,6-dione] was less than 20%.

Staying with this assay, now noted: HeLa LgBiT clone 4.14 HiBiT-STAT6, 4-24 h incubation; values given for compounds with >80% Emax; geometric mean; read-out: STAT6 degradation DC50.
What is called DC50 is the concentration at which degradation of the target reaches its halfway point. For `CNc1ccn(-c2ccnc3c2cc([C@H](C)N2CC=C(c4c(C)cc(C(=O)N5CCC(CN6CCN(Cc7ccc8c(c7)n(C7CC7)c(=O)n8[C@H]7CCC(=O)NC7=O)CC6)CC5)cc4F)CC2)n3C)c(=O)c1` (single isomer, unassigned) [Example 3u123], the DC50 was determined as 0.9 nM. The same measure, in the same setting: as for `CNc1ccn(-c2ccnc3c2cc([C@H](C)N2CC=C(c4c(C)cc(C(=O)N5CCC(CN6CCN(Cc7ccc8c(c7)C7(CCCC7)C(=O)N8C7CCC(=O)NC7=O)CC6)CC5)cc4F)CC2)n3C)c(=O)c1` (stereo partly drawn) [Example 3u110, 3-(5′-((4-((1-(3-fluoro-5-methyl-4-(1-((S)-1-(1-methyl-4-(4-(methylamino)-2-oxopyridin-1 (2H)-yl)-1H-pyrrolo[2,3-b]pyridin-2-yl)ethyl)-1,2,3,6-tetrahydropyridin-4-yl)benzoyl)piperidin-4-yl)methyl)piperazin-1-yl)methyl)-2′-oxospiro[cyclopentane-1,3′-indolin]-1′-yl)piperidine-2,6-dione], the figure is 2.5 nM. Take `Cc1cc(C(=O)N2CCC(CN3CCN(Cc4ccc5c(c4)n(C4CC4)c(=O)n5[C@H]4CCC(=O)NC4=O)C[C@@H]3C)CC2)cc(F)c1C1=CCN([C@@H](C)c2cc3c(-n4ccc5c(c4=O)CCN5)ccnc3n2C)CC1` (single isomer, unassigned) [Example 3u145]: the DC50 turned out to be 2 nM. Still for that read-out and setting: the value for `Cc1cc(C(=O)N2CCC(CN3CCN(Cc4ccc5c(c4)n(C)c(=O)n5[C@H]4CCC(=O)NC4=O)C[C@@H]3C)CC2)cc(F)c1C1=CCN(Cc2cc3c(-n4ccc5c(c4=O)CCN5)ccnc3n2C)CC1` (single isomer, unassigned) [Example 3u24] was 1.2 nM; that for `CNc1ccn(-c2ccnc3c2cc([C@H](C)N2CC=C(c4c(C)cc(C(=O)N(C)C5CCC(C6CCN(Cc7ccc8c(c7)n(C)c(=O)n8C7CCC(=O)NC7=O)CC6)CC5)cc4F)CC2)n3C)c(=O)c1` (stereo partly drawn) [Example 3u252, N-(4-(1-((1-(2,6-dioxopiperidin-3-yl)-3-methyl-2-oxo-2,3-dihydro-1H-benzo[d]-imidazol-5-yl)methyl)piperidin-4-yl)cyclohexyl)-3-fluoro-N,5-dimethyl-4-(1-((S)-1-(1-methyl-4-(4-(methylamino)-2-oxopyridin-1 (2H)-yl)-1H-pyrrolo[2,3-b]pyridin-2-yl)ethyl)-1,2,3,6-tetrahydropyridin-4-yl)benzamide] was 0.4 nM; that for `Cc1cc(C(=O)N2CCC(CN3CCN(Cc4cc5c(cc4F)n([C@@H]4CCC(=O)NC4=O)c(=O)n5C4CC4)C[C@@H]3C)CC2)cc(F)c1C1=CCN([C@@H](C)c2cc3c(-n4ccc5c(c4=O)CCN5)ccnc3n2C)CC1` (single isomer, unassigned) [Example 3u133] was 0.8 nM. On to `CNc1cc(=O)n(-c2ccnc3c2cc([C@H](C)N2CC=C(c4c(C)cc(C(=O)N(C)c5ccc(C6CCN(Cc7ccc8c(c7)C(C)(C)C(=O)N8[C@H]7CCC(=O)NC7=O)CC6)cc5)cc4F)CC2)n3C)cc1F` (single isomer, unassigned) [Example 3u234], for which the half-maximal degradation concentration (DC50) came out at 0.1 nM.

On to `Cc1cc(C(=O)N2CCC(CN3CCN(Cc4ccc5c(c4)n(C)c(=O)n5[C@H]4CCC(=O)NC4=O)C[C@@H]3C)CC2)cc(F)c1C1CCN(Cc2cc3c(-n4ccc5c(c4=O)CCN5)ccnc3n2C)CC1` (single isomer, unassigned) [Example 3u41], for which the half-maximal degradation concentration (DC50) was found to be 6 nM. In the case of `CNc1ccn(-c2ccnc3c2cc([C@H](C)N2CC=C(c4c(C)cc(C(=O)N5CCC(CN6CCN(Cc7ccc8c(c7)n(C7CC7)c(=O)n8[C@H]7CCC(=O)NC7=O)C[C@@H]6C)CC5)cc4F)CC2)n3C)c(=O)c1` (single isomer, unassigned) [Example 3u112], the 50% degradation concentration (DC50) worked out at 0.5 nM. The same measure, in the same setting: as for `Cc1cc(C(=O)N2CCC(CN3CCN(Cc4ccc5c(c4)n(C)c(=O)n5[C@@H]4CCC(=O)NC4=O)C[C@@H]3C)CC2)cc(F)c1C1CCN(Cc2cc3c(-n4ccc5c(c4=O)CCN5)ccnc3n2C)CC1` (single isomer, unassigned) [Example 3u40], the figure is 2.3 nM. Regarding `CNc1ccn(-c2ccnc3c2cc([C@H](C)N2CC=C(c4c(C)cc(C(=O)N5CCC(CN6CCN(Cc7ccc8c(c7)C(F)(F)C(=O)N8C7CCC(=O)NC7=O)CC6)CC5)cc4F)CC2)n3C)c(=O)c1` (stereo partly drawn) [Example 3u255, 3-(3,3-difluoro-5-((4-((1-(3-fluoro-5-methyl-4-(1-((S)-1-(1-methyl-4-(4-(methylamino)-2-oxopyridin-1 (2H)-yl)-1H-pyrrolo[2,3-b]pyridin-2-yl)ethyl)-1,2,3,6-tetrahydropyridin-4-yl)benzoyl)piperidin-4-yl)methyl)piperazin-1-yl)methyl)-2-oxoindolin-1-yl)piperidine-2,6-dione], the half-maximal degradation concentration (DC50) worked out at 13.7 nM.
